One assay has as its target Aβ40 (Homo sapiens, UniProt P05067). In words: ThT Aβ aggregation assay (kinetic Thioflavin T fluorescence). Format: biochemical. The settings on record: 20 μM Aβ, DMSO control at 80 hr = 0% inhibition, number in parenthesis = compound ID 1027 in that experiment; for inhibition at 10 µM: compound 10 μM, read-out: % inhib Thioflavin T Aβ 40 10 μM; for inhibition at 5 µM: 80 h, compound 5 μm (so in the source), read-out: % inhib Thioflavin T Aβ 40 (5 μm). On the procedure: Preparation of Aβ40 Stock Solutions
Aβ40 (1.0 mg) was pre-treated in a 1.5 mL microfuge tube with HFIP (1 mL) and sonicated for 20 min to disassemble any pre-formed Aβ aggregates. The HFIP was removed with a stream of argon and the Aβ dissolved in Tris base (5.8 mL, 20 mM, pH ˜10). The pH was adjusted to 7.4 with concentrated HCl (˜10 μL) and the solution filtered using a syringe filter (0.2 μm) before being used.
The kinetic ThT assay for Aβ aggregation is similar to that of Chalifour et al (Chalifour et al, 2003, J. Biol. Chem. 278:34874-81). Briefly, pre-treated Aβ40 or Aβ42 (40 μM in 20 mM Tris, pH 7.4) was diluted with an equal volume of 8 μM Thioflavin T (ThT) in Tris (20 mM, pH 7.4, 300 mM NaCl). Aliquots of Aβ/ThT (200 μL) were added to wells of a black polystyrene 96-well plate, followed by 2 μL of a compound in DMSO (variable concentration), or DMSO alone (controls). Incubations were performed in triplicate and were taken to contain 20 μM Aβ, various concentration of compound in 20 mM Tris, pH 7.4, 150 mM NaCl, 1% DMSO. Plates were covered with clear polystyrene lids and incubated at 37° C. in a Tecan Genios microplate reader.
Analysis of ThT and ThS Aggregation Assays
Fluorescence readings (λex=450 nm, λem=480 nm) were taken every 15 min., after first shaking at high intensity for 15 s and allowing to settle for 10 s before each reading. Active compounds attenuated the increase in fluorescence over time that occurred in controls. In FIGS. 1-7, the time this procedure was performed extended to 80 hours (rightmost part of X-axis), at which point fluorescence increase generally reached an asymptote. Applying a definition of DMSO control at 80 hr as 100% aggregation (0% inhibition) and DMSO control at 0 hr as 0% aggregation (100% inhibition), a % inhibition score where higher is better can be calculated for a given concentration of compound. By repeating this procedure over several concentrations, a […] (IC50) can be measured, as is given in the table below for some compounds.

Assay [1] addresses Terminally biotinylated beta-amyloid (Aβ42) (Homo sapiens, UniProt P05067). The assay can be described thus: Aβ42 biotinylated (biotin-AB) oligomerization assay, NeutrAvidin capture ELISA. Format: biochemical. The settings on record: approximate value; 1 hr oligomerization at room temperature; read-out: IC50 Aβ 42-bio. In a few lines:
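Biotin-Aβ42, pretreated with HFIP/TFA to remove seeds, oligomerized 1 h at room temperature with compound in 20 mM sodium phosphate pH 7.5, 150 mM NaCl (DMSO up to 1%). Oligomers captured on NeutrAvidin plates, detected with streptavidin-HRP/TMB at 450 nm; IC50 approximate, in µM.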

Sequence of Terminally biotinylated beta-amyloid (Aβ42) (P05067 672-713, species assumed): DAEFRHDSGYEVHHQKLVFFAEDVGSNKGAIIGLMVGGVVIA
Sequence of Aβ40 (P05067 672-711, species assumed): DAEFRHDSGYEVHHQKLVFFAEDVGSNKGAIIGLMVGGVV

In the case of `Brc1cc(N2CC(CN3CCOCC3)C2)c2nonc2c1` [compound 1470], on Aβ40, the inhibition at 10 µM came out at 62%. Further, the IC50 in assay [1] is more than 20 µM.

`c1coc(-c2cc(N3CC(CN4CCCC4)C3)c3nonc3c2)c1` [compound 1530]: the inhibition at 10 µM at Aβ40 worked out at 79%. Further, the half-maximal inhibitory concentration (IC50) in assay [1] stood at 10.5 µM.

Take `CN1CC=C(c2cc(N3CC(CN4CCCC4)C3)c3nonc3c2)CC1` [compound 1517]: at Aβ40, the inhibition at 10 µM was found to be 33%. The IC50 in assay [1] stood at 6.8 µM.

In the case of `OC(c1ccc(-c2cc(N3CCC(N4CCCC4)CC3)c3nonc3c2)cc1)C(F)(F)F` (stereo not shown) [compound 1468], on Aβ40, the inhibition at 5 µM came out at 44% and the inhibition at 10 µM stood at 65%. In assay [1], the IC50 is 2.4 µM.

As for `c1ccc(Oc2ccc(-c3cc(N4CC(CN5CCCC5)C4)c4nonc4c3)cc2)cc1` [compound 1491], the inhibition at 10 µM at Aβ40 was determined as 32%. Further, the half-maximal inhibitory concentration (IC50) in assay [1] is 0.52 µM.

For `O=C(c1cc(N2CC(CN3CCCC3)C2)c2nonc2c1)N1CCOCC1` [compound 1538], on Aβ40, the inhibition at 5 µM was found to be 47% and the inhibition at 10 µM is 54%. Moreover, the IC50 in assay [1] came to 2.9 µM.

In the case of `CN(C)C1CCN(c2cc(-c3cccc(C(O)C(F)(F)F)c3)cc3nonc23)CC1` (stereo not shown) [compound 1466], the inhibition at 5 µM at Aβ40 is 37%. The concentration for half-maximal inhibition (IC50) in assay [1] turned out to be 4.1 µM.

For `N#Cc1cccc(-c2cc(N3CC(CN4CCCC4)C3)c3nonc3c2)c1` [compound 1493], the inhibition at 10 µM at Aβ40 was determined as 57%. Further, the 50% inhibitory concentration (IC50) in assay [1] is 12.9 µM.

Consider `CC(=O)c1cccc(-c2cc(N3CC(CN4CCCC4)C3)c3nonc3c2)c1` [compound 1480], for which, at Aβ40, the inhibition at 10 µM turned out to be 31%. For the same compound, in assay [1], the 50% inhibitory concentration (IC50) is 6.33 µM.

As to `FC(F)(F)c1ccc(-c2cc(N3CC(CN4CCCC4)C3)c3nonc3c2)cc1` [compound 1502], the inhibition at 10 µM at Aβ40 was found to be 55%. In addition, the 50% inhibitory concentration (IC50) in assay [1] came out at 4.78 µM.

Consider `OC(c1cc(N2CC(CN3CCCC3)C2)c2nonc2c1)C(F)(F)F` (stereo not shown) [compound 1520], for which the inhibition at 10 µM on Aβ40 was determined as 46%. In addition, the IC50 in assay [1] was determined as 6.1 µM.

On to `COc1ccc(-c2cc(N3CC(CN4CCCC4)C3)c3nonc3c2)c(OC)c1` [compound 1515], for which the inhibition at 10 µM on Aβ40 worked out at 61%. Besides, the IC50 in assay [1] amounted to 16.7 µM.

As for `CC(=O)N1C=C(c2cc(N3CC(CN4CCCC4)C3)c3nonc3c2)CCC1` [compound 1534], the inhibition at 10 µM at Aβ40 is 67%. Further, in assay [1], the half-inhibitory concentration (IC50) stood at 3.5 µM.

For `CCN(CC)C(=O)c1cc(N2CC(CN3CCCC3)C2)c2nonc2c1` [compound 1540], at Aβ40, the inhibition at 5 µM is 41% and the inhibition at 10 µM is 50%. Besides, the half-inhibitory concentration (IC50) in assay [1] is 1.8 µM.

On to `FC(F)(F)Oc1ccccc1-c1cc(N2CC(CN3CCCC3)C2)c2nonc2c1` [compound 1495], for which the inhibition at 10 µM on Aβ40 is 64%. In assay [1], the half-inhibitory concentration (IC50) was 5.91 µM.

For the compound `c1ccc(Oc2ccccc2-c2cc(N3CC(CN4CCCC4)C3)c3nonc3c2)cc1` [compound 1504], the inhibition at 10 µM on Aβ40 turned out to be 72%. For the same compound, the IC50 in assay [1] was 5.27 µM.

Take `c1csc(-c2cc(N3CC(CN4CCCC4)C3)c3nonc3c2)c1` [compound 1529]: the inhibition at 10 µM on Aβ40 was found to be 74%. The concentration for half-maximal inhibition (IC50) in assay [1] turned out to be 9 µM.

`COc1ccc(-c2cc(N3CC(CN4CCCC4)C3)c3nonc3c2)cc1OC` [compound 1483]: the inhibition at 10 µM on Aβ40 came to 36%. Also, the concentration for half-maximal inhibition (IC50) in assay [1] stood at 8.21 µM.

Turning to `COc1ccc(-c2cc(N3CC(CN4CCCC4)C3)c3nonc3c2)cc1Cl` [compound 1492], the inhibition at 10 µM on Aβ40 was found to be 22%. Further, the IC50 in assay [1] is 4.8 µM.

With `CN(C)C(=O)c1cccc(-c2cc(N3CC(CN4CCCC4)C3)c3nonc3c2)c1` [compound 1531], the inhibition at 10 µM at Aβ40 turned out to be 45%. The IC50 in assay [1] was 2.7 µM.

`Brc1cc(N2CC(CN3CCCC3)C2)c2nonc2c1` [compound 1472, 6-bromo-4-(3-(pyrrolidin-1-ylmethyl)azetidin-1-yl)benzo[c][1,2,5]oxadiazole]: on Aβ40, the inhibition at 10 µM is 65%. In addition, in assay [1], the IC50 stood at 3.6 µM.

With `COc1cccc(OC)c1-c1cc(N2CC(CN3CCCC3)C2)c2nonc2c1` [compound 1511], at Aβ40, the inhibition at 10 µM amounted to 27%. The IC50 in assay [1] worked out at 21.3 µM.

In the case of `CC(=O)N1CC=C(c2cc(N3CC(CN4CCCC4)C3)c3nonc3c2)CC1` [compound 1503], the inhibition at 10 µM at Aβ40 was 33%. Besides, in assay [1], the 50% inhibitory concentration (IC50) is more than 20 µM.

The term IC50 denotes the concentration that inhibits the measured activity by half.
